Data as given in US10828301B2, “2,4-pyrimidinediamine compounds and their uses” (Rigel Pharmaceuticals, Inc, priority 2002, dated 2020).
Blank lines part the entries; values can stand above or below the compound they belong to.

What was measured:
[1] = system: cultured human mast cells (CHMC); assay: CHMC low cell density IgE activation: tryptase and LTC4 assays; assay type: cell-based; conditions: Low Density CHMC, anti-IgE activation
In short: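 Degranulation measured after 30 min anti-IgE challenge at 37° C of CHMC plated at 1000-1500 cells/well following 1 h preincubation. Readouts: LTC4 by ELISA on donor-specific diluted supernatants, and tryptase activity from a 30 min room-temperature substrate reaction.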

[2] = system: cultured human mast cells (CHMC); assay: CHMC low cell density ionomycin activation: tryptase assay; assay type: cell-based; conditions: Low Density CHMC, ionomycin activation, tryptase readout, read-out: CHMC Ionomycin Tryptase
[3] = Homo sapiens, Mast cell, tryptase readout, read-out: CHMC anti-IgE Tryptase
[4] = tryptase readout, read-out: CHMC anti-IgE Tryptase

Structure (SMILES): Nc1nc(N(c2ccc(CO)cc2)c2ccc3c(c2)OCCO3)ncc1F [Compound R925760, N2-(3,4-Ethylenedioxyphenyl)-5-fluoro-N2-[4-(hydroxymethyl)phenyl]-2,4-pyrimidinediamine]
IC50 [1, 3]: 4.85 µM | IC50 ([2]; Homo sapiens, Mast cell): > 10 µM

Structure (SMILES): Nc1nc(N(CC(O)c2ccccc2)c2ccc3c(c2)OCCO3)ncc1F (stereo not drawn) [Compound R925765, N2-(3,4-Ethylenedioxyphenyl)-5-fluoro-N2-(2-hydroxy-2-phenylethyl)-2,4-pyrimidinediamine]
IC50 [1, 3]: 6.8 µM | IC50 ([2]; Homo sapiens, Mast cell): > 10 µM

Structure (SMILES): Brc1cnc(Nc2ccc3c(c2)OCCO3)nc1Nc1ccc2c(c1)OCCO2 [Compound R925771, N2,N4-Bis(3,4-ethylenedioxyphenyl)-5-bromo-2,4-pyrimidinediamine]
IC50 ([1]; Homo sapiens, Mast cell, LTC4 readout, read-out: CHMC anti-IgE LTC4): 0.22 µM | IC50 [1, 3]: 0.5 µM | IC50 ([2]; Homo sapiens, Mast cell): 2.8 µM

Structure (SMILES): Fc1cnc(NCc2ccccc2)nc1NCc1ccccc1 [Compound R925772, N2,N4-Dibenzyl-5-fluoro-2,4-pyrimidinediamine]
IC50 [1, 3]: > 10 µM | IC50 ([2]; Homo sapiens, Mast cell): > 10 µM

Structure (SMILES): N#Cc1cnc(Nc2ccc3c(c2)OCCO3)nc1Nc1ccc2c(c1)OCCO2 [Compound R925773, N2,N4-Bis(3,4-ethylenedioxyphenyl)-5-cyano-2,4-pyrimidinediamine]
IC50 [1, 3]: 0.673 µM | IC50 ([2]; Homo sapiens, Mast cell): > 10 µM

Structure (SMILES): N#Cc1cnc(Nc2cccc(O)c2)nc1Nc1cccc(O)c1 [Compound R925774, N2,N4-Bis(3-hydroxyphenyl)-5-cyano-2,4-pyrimidinediamine]
IC50 [1, 3]: 0.435 µM | IC50 ([2]; Homo sapiens, Mast cell): > 10 µM

Structure (SMILES): Fc1cnc(Nc2ccc3c(c2)OCO3)nc1Nc1ccc2c(c1)OCO2 [Compound R925776, N2,N4-Bis(3,4-methylenedioxyphenyl)-5-fluoro-2,4-pyrimidinediamine]
IC50 [1, 3]: 2.1 µM | IC50 ([2]; Homo sapiens, Mast cell): > 10 µM

Structure (SMILES): Oc1cccc(Nc2ncc(-c3ccccc3)c(Nc3cccc(O)c3)n2)c1 [Compound R925783, N2,N4-Bis(3-hydroxyphenyl)-5-phenyl-2,4-pyrimidinediamine]
IC50 [1, 3]: 2.9 µM | IC50 ([2]; Homo sapiens, Mast cell): > 10 µM

Structure (SMILES): c1ccc(-c2cnc(Nc3ccc4c(c3)OCCO4)nc2Nc2ccc3c(c2)OCCO3)cc1 [Compound R925784, N2,N4-Bis(3,4-ethylenedioxyphenyl)-5-phenyl-2,4-pyrimidinediamine]
IC50 [1, 3]: 3.2 µM | IC50 ([2]; Homo sapiens, Mast cell): > 10 µM

Structure (SMILES): c1coc(-c2cnc(Nc3ccc4c(c3)OCCO4)nc2Nc2ccc3c(c2)OCCO3)c1 [Compound R925785, N2,N4-Bis(3,4-ethylenedioxyphenyl)-5-(2-furanyl)-2,4-pyrimidinediamine]
IC50 [1, 3]: 2.5 µM | IC50 ([2]; Homo sapiens, Mast cell): > 10 µM

Structure (SMILES): Clc1ccc(-c2cnc(Nc3ccc4c(c3)OCCO4)nc2Nc2ccc3c(c2)OCCO3)cc1 [Compound R925786, N2,N4-Bis(3,4-ethylenedioxyphenyl)-5-(4-chlorophenyl)-2,4-pyrimidinediamine]
IC50 [1, 3]: 1.85 µM | IC50 ([2]; Homo sapiens, Mast cell): > 10 µM

Structure (SMILES): Clc1cccc(-c2cnc(Nc3ccc4c(c3)OCCO4)nc2Nc2ccc3c(c2)OCCO3)c1 [Compound R925787, N2,N4-Bis(3,4-ethylenedioxyphenyl)-5-(3-chlorophenyl)-2,4-pyrimidinediamine]
IC50 [1, 3]: 9 µM | IC50 ([2]; Homo sapiens, Mast cell): > 10 µM

Structure (SMILES): Oc1cccc(Nc2ncc(-c3ccc4c(c3)OCO4)c(Nc3cccc(O)c3)n2)c1 [Compound R925788, N2,N4-Bis(3-hydroxyphenyl)-5-(3,4-methylenedioxyphenyl)-2,4-pyrimidinediamine]
IC50 [1, 3]: 2.4 µM | IC50 ([2]; Homo sapiens, Mast cell): > 10 µM

Structure (SMILES): Oc1ccc(CCNc2ccnc(NCCc3ccc(O)cc3)n2)cc1 [Compound R925790, N2,N4-Bis[2-(4-hydroxyphenyl)ethyl]-2,4-pyrimidinediamine]
IC50 [1, 3]: > 10 µM | IC50 ([2]; Homo sapiens, Mast cell): > 10 µM

Structure (SMILES): Oc1ccc(CCNc2ncc(F)c(NCCc3ccc(O)cc3)n2)cc1 [Compound R925791, N2,N4-Bis[2-(4-hydroxyphenyl)ethyl]-5-fluoro-2,4-pyrimidinediamine]
IC50 [1, 3]: > 10 µM | IC50 ([2]; Homo sapiens, Mast cell): > 10 µM

Structure (SMILES): Oc1ccc(CCNc2ncc(Br)c(NCCc3ccc(O)cc3)n2)cc1 [Compound R925792, N2,N4-Bis[2-(4-hydroxyphenyl)ethyl]-5-bromo-2,4-pyrimidinediamine]
IC50 [1, 3]: 6.25 µM | IC50 ([2]; Homo sapiens, Mast cell): > 10 µM

Structure (SMILES): Fc1cnc(Nc2ccc3c(c2)OCCO3)nc1NC1CCCCC1 [Compound R925794, N4-Cyclohexyl-N2-(3,4-ethylenedioxyphenyl)-5-fluoro-2,4-pyrimidinediamine]
IC50 [1, 3]: > 10 µM | IC50 ([2]; Homo sapiens, Mast cell): > 10 µM

Structure (SMILES): O=C(O)C1CCC(Nc2nc(Nc3ccc4c(c3)OCCO4)ncc2F)CC1 (stereo not drawn) [Compound R925795, N4-(4-Carboxycyclohexyl)-N2-(3,4-ethylenedioxyphenyl)-5-fluoro-2,4-pyrimidinediamine]
IC50 [1, 3]: > 10 µM | IC50 ([2]; Homo sapiens, Mast cell): > 10 µM

Structure (SMILES): Brc1cnc(Nc2ccccc2-c2ccccc2)nc1Nc1ccccc1-c1ccccc1 [Compound R925798, N2,N4-Bis(2-phenylphenyl)-5-bromo-2,4-pyrimidinediamine]
IC50 [1, 3]: > 10 µM | IC50 ([2]; Homo sapiens, Mast cell): > 10 µM

Structure (SMILES): COc1ccc(-c2ccccc2)cc1Nc1ncc(Br)c(Nc2cc(-c3ccccc3)ccc2OC)n1 [Compound R925799, N2,N4-Bis(2-methoxy-5-phenylphenyl)-5-bromo-2,4-pyrimidinediamine]
IC50 [1, 3]: > 10 µM | IC50 ([2]; Homo sapiens, Mast cell): > 10 µM

Structure (SMILES): Cc1ccc(-c2ccccc2)cc1Nc1ncc(Br)c(Nc2cc(-c3ccccc3)ccc2C)n1 [Compound R925800, N2,N4-Bis(2-methyl-5-phenylphenyl)-5-bromo-2,4-pyrimidinediamine]
IC50 [1, 3]: > 10 µM | IC50 ([2]; Homo sapiens, Mast cell): > 10 µM

Structure (SMILES): COc1cc(-c2ccccc2)c(C)cc1Nc1ncc(Br)c(Nc2cc(C)c(-c3ccccc3)cc2OC)n1 [Compound R925801, N2,N4-Bis(2-methoxy-5-methyl-4-phenylphenyl)-5-bromo-2,4-pyrimidinediamine]
IC50 [1, 3]: > 10 µM | IC50 ([2]; Homo sapiens, Mast cell): > 10 µM

Other lines, results leading:

IC50 [1, 3]: > 10 µM | IC50 ([2]; Homo sapiens, Mast cell): > 10 µM
Structure (SMILES): COc1ccc(Nc2ncc(Br)c(Nc3ccc(OC)c(-c4ccccc4)c3)n2)cc1-c1ccccc1 [Compound R925802, N2,N4-Bis(4-methoxy-3-phenylphenyl)-5-bromo-2,4-pyrimidinediamine]

IC50 [1, 3]: > 10 µM | IC50 ([2]; Homo sapiens, Mast cell): > 10 µM
Structure (SMILES): Brc1cnc(Nc2cccc(-c3ccccc3)c2)nc1Nc1cccc(-c2ccccc2)c1 [Compound R925803, N2,N4-Bis(3-phenylphenyl)-5-bromo-2,4-pyrimidinediamine]

IC50 [1, 3]: > 10 µM | IC50 ([2]; Homo sapiens, Mast cell): > 10 µM
Structure (SMILES): c1ccc(-c2ccccc2Nc2ccnc(Nc3ccccc3-c3ccccc3)n2)cc1 [Compound R925804, N2,N4-Bis(2-phenylphenyl)-2,4-pyrimidinediamine]

IC50 [1, 3]: > 10 µM | IC50 ([2]; Homo sapiens, Mast cell): > 10 µM
Structure (SMILES): COc1ccc(-c2ccccc2)cc1Nc1ccnc(Nc2cc(-c3ccccc3)ccc2OC)n1 [Compound R925805, N2,N4-Bis(2-methoxy-5-phenylphenyl)-2,4-pyrimidinediamine]

IC50 [1, 3]: > 10 µM | IC50 ([2]; Homo sapiens, Mast cell): > 10 µM
Structure (SMILES): COc1ccc(Nc2ccnc(Nc3ccc(OC)c(-c4ccccc4)c3)n2)cc1-c1ccccc1 [Compound R925806, N2,N4-Bis(4-methoxy-3-phenylphenyl)-2,4-pyrimidinediamine]

IC50 [1, 3]: > 10 µM | IC50 ([2]; Homo sapiens, Mast cell): > 10 µM
Structure (SMILES): Cc1ccc(-c2ccccc2)cc1Nc1ccnc(Nc2cc(-c3ccccc3)ccc2C)n1 [Compound R925807, N2,N4-Bis(2-methyl-5-phenylphenyl)-2,4-pyrimidinediamine]

IC50 [1, 3]: > 10 µM | IC50 ([2]; Homo sapiens, Mast cell): > 10 µM
Structure (SMILES): COc1cc(-c2ccccc2)c(C)cc1Nc1ccnc(Nc2cc(C)c(-c3ccccc3)cc2OC)n1 [Compound R925808, N2,N4-Bis(2-methoxy-5-methyl-4-phenylphenyl)-2,4-pyrimidinediamine]

IC50 [1, 3]: 3.3 µM | IC50 ([2]; Homo sapiens, Mast cell): > 10 µM
Structure (SMILES): c1ccc(-c2cc(Nc3ccc4c(c3)OCCO4)nc(Nc3ccc4c(c3)OCCO4)n2)cc1 [Compound R925811, N2,N4-Bis(3,4-ethylenedioxyphenyl)-6-phenyl-2,4-pyrimidinediamine]

IC50 [1, 3]: 5.8 µM | IC50 ([2]; Homo sapiens, Mast cell): > 10 µM
Structure (SMILES): Oc1cccc(Nc2cc(-c3ccccc3)nc(Nc3cccc(O)c3)n2)c1 [Compound R925812, N2,N4-Bis(3-hydroxyphenyl)-6-phenyl-2,4-pyrimidinediamine]

IC50 [1, 3]: > 10 µM | IC50 ([2]; Homo sapiens, Mast cell): > 10 µM
Structure (SMILES): COC(=O)c1ccc(-c2cnc(Nc3ccc4c(c3)OCCO4)nc2Nc2ccc3c(c2)OCCO3)cc1 [Compound R925813, N2,N4-Bis(3,4-ethylenedioxyphenyl)-5-(4-methoxycarbonylphenyl)-2,4-pyrimidinediamine]

IC50 [1, 3]: > 10 µM | IC50 ([2]; Homo sapiens, Mast cell): > 10 µM
Structure (SMILES): CCOC(=O)C(Nc1ncc(C#N)c(NC(C(=O)OCC)C(C)C)n1)C(C)C (stereo not drawn) [Compound R925814, N2,N4-Bis(1-ethoxycarbonyl-2-methylpropyl)-5-cyano-2,4-pyrimidinediamine]

IC50 [1, 3]: > 10 µM | IC50 ([2]; Homo sapiens, Mast cell): > 10 µM
Structure (SMILES): COC(=O)C(CC(C)C)Nc1ncc(C#N)c(NC(CC(C)C)C(=O)OC)n1 (stereo not drawn) [Compound R925815, N2,N4-Bis(1-methoxycarbonyl-3-methylbutyl)-5-cyano-2,4-pyrimidinediamine]

IC50 [1, 3]: 6 µM | IC50 ([2]; Homo sapiens, Mast cell): > 10 µM
Structure (SMILES): Oc1ccc(-c2cnc(Nc3ccc4c(c3)OCCO4)nc2Nc2ccc3c(c2)OCCO3)cc1 [Compound R925816, N2,N4-Bis(3,4-ethylenedioxyphenyl)-5-(4-hydroxyphenyl)-2,4-pyrimidinediamine]

IC50 [1, 4]: > 10 µM | IC50 [2]: > 10 µM
Structure (SMILES): COC(=O)c1ccc(CNc2ncc(C#N)c(NCc3ccc(C(=O)OC)cc3)n2)cc1 [Compound R925819, N2,N4-Bis(methoxycarbonylbenzyl)-5-cyano-2,4-pyrimidinediamine]

IC50 [1, 4]: > 10 µM | IC50 [2]: > 10 µM
Structure (SMILES): COC(=O)c1ccc(CNc2nc(Nc3ccc4c(c3)OCCO4)ncc2C#N)cc1 [Compound R925820, 5-Cyano-N2-(3,4-ethylenedioxyphenyl)-N4-(methoxycarbonylbenzyl)-2,4-pyrimidinediamine]
